Measured values taken from patent publication US9617602B2, “Methods and compositions for determining resistance to androgen receptor therapy” (Aragon Pharmaceuticals, Inc., priority 2012, dated 2017).

How the values were obtained:
[1] = test system: Class 1 ARN-509- and MDV3100-resistant cell lines; test: Proliferation assay (CellTiter-Glo), agonist and antagonist mode; format: cell-based, human
[2] = test system: LNCaP/AR(cs) cells; test: Endogenous gene transcriptional assay (real-time PCR of androgen responsive genes); format: cell-based, human
[3] = Table 4A, 1 nM R1881 or 30 μM compound, vehicle=1.00

CNC(=O)c1ccc(N2C(=S)N(c3cnc(C#N)c(C(F)(F)F)c3)C(=O)C23CCC3)cc1F [ARN-509]
Effect on growth inhibitory activity of R1881 in Class 1 cells [1]: antagonized
viability at 0.0001 µM ([1]; Homo sapiens, 168 h, read-out: Antagonist Proliferation Assay (% Viability)): > 30%
Ligand independent growth of Class 1 cells in presence of compound ([1]; absence of added androgens): unaltered
AMIGO2 expression, antagonist transcription ([2]; +1 nM R1881, 0.3 μM): 0.30
BDNF expression, antagonist transcription ([2]; +1 nM R1881, 0.3 μM): 0.43
CAM2KN1 expression, antagonist transcription ([2]; +1 nM R1881, 0.3 μM): 0.04
FASN expression, antagonist transcription ([2]; +1 nM R1881, 0.3 μM): 1.92
FKBP5 expression, antagonist transcription ([2]; +1 nM R1881, 0.3 μM): 33.14
HPGD expression, antagonist transcription ([2]; +1 nM R1881, 0.3 μM): 105.97
NCAPD3 expression, antagonist transcription ([2]; +1 nM R1881, 0.3 μM): 43.93
NKX3.1 expression, antagonist transcription ([2]; +1 nM R1881, 0.3 μM): 8.32
NOV expression, antagonist transcription ([2]; +1 nM R1881, 0.3 μM): 0.03
ORM1 expression, antagonist transcription ([2]; +1 nM R1881, 0.3 μM): 5100.90
PLD1 expression, antagonist transcription ([2]; +1 nM R1881, 0.3 μM): 0.02
PSA expression, antagonist transcription ([2]; +1 nM R1881, 0.3 μM): 19.09
SLUG expression, antagonist transcription ([2]; +1 nM R1881, 0.3 μM): 71.33
STEAP4 expression, antagonist transcription ([2]; +1 nM R1881, 0.3 μM): 1019.98
TMPRSS2 expression, antagonist transcription ([2]; +1 nM R1881, 0.3 μM): 19.07
AMIGO2 expression, antagonist transcription ([2]; +1 nM R1881, 1 μM): 0.31
BDNF expression, antagonist transcription ([2]; +1 nM R1881, 1 μM): 0.35
CAM2KN1 expression, antagonist transcription ([2]; +1 nM R1881, 1 μM): 0.06
FASN expression, antagonist transcription ([2]; +1 nM R1881, 1 μM): 1.52
FKBP5 expression, antagonist transcription ([2]; +1 nM R1881, 1 μM): 22.49
HPGD expression, antagonist transcription ([2]; +1 nM R1881, 1 μM): 76.25
NCAPD3 expression, antagonist transcription ([2]; +1 nM R1881, 1 μM): 32.00
NKX3.1 expression, antagonist transcription ([2]; +1 nM R1881, 1 μM): 9.92
NOV expression, antagonist transcription ([2]; +1 nM R1881, 1 μM): 0.09
ORM1 expression, antagonist transcription ([2]; +1 nM R1881, 1 μM): 2679.73
PLD1 expression, antagonist transcription ([2]; +1 nM R1881, 1 μM): 0.02
PSA expression, antagonist transcription ([2]; +1 nM R1881, 1 μM): 21.75
SLUG expression, antagonist transcription ([2]; +1 nM R1881, 1 μM): 62.00
STEAP4 expression, antagonist transcription ([2]; +1 nM R1881, 1 μM): 742.61
TMPRSS2 expression, antagonist transcription ([2]; +1 nM R1881, 1 μM): 24.11
AMIGO2 expression, antagonist transcription ([2]; +1 nM R1881, 3 μM): 0.52
BDNF expression, antagonist transcription ([2]; +1 nM R1881, 3 μM): 0.67
CAM2KN1 expression, antagonist transcription ([2]; +1 nM R1881, 3 μM): 0.19
FASN expression, antagonist transcription ([2]; +1 nM R1881, 3 μM): 1.08
FKBP5 expression, antagonist transcription ([2]; +1 nM R1881, 3 μM): 12.56
HPGD expression, antagonist transcription ([2]; +1 nM R1881, 3 μM): 32.19
NCAPD3 expression, antagonist transcription ([2]; +1 nM R1881, 3 μM): 15.57
NKX3.1 expression, antagonist transcription ([2]; +1 nM R1881, 3 μM): 12.01
NOV expression, antagonist transcription ([2]; +1 nM R1881, 3 μM): 0.31
ORM1 expression, antagonist transcription ([2]; +1 nM R1881, 3 μM): 1031.40
PLD1 expression, antagonist transcription ([2]; +1 nM R1881, 3 μM): 0.04
PSA expression, antagonist transcription ([2]; +1 nM R1881, 3 μM): 23.57
SLUG expression, antagonist transcription ([2]; +1 nM R1881, 3 μM): 50.70
STEAP4 expression, antagonist transcription ([2]; +1 nM R1881, 3 μM): 256.89
TMPRSS2 expression, antagonist transcription ([2]; +1 nM R1881, 3 μM): 23.38
AMIGO2 expression, antagonist transcription ([2]; +1 nM R1881, 10 μM): 0.60
BDNF expression, antagonist transcription ([2]; +1 nM R1881, 10 μM): 0.74
CAM2KN1 expression, antagonist transcription ([2]; +1 nM R1881, 10 μM): 0.43
FASN expression, antagonist transcription ([2]; +1 nM R1881, 10 μM): 0.60
FKBP5 expression, antagonist transcription ([2]; +1 nM R1881, 10 μM): 2.74
HPGD expression, antagonist transcription ([2]; +1 nM R1881, 10 μM): 8.36
NCAPD3 expression, antagonist transcription ([2]; +1 nM R1881, 10 μM): 2.39
NKX3.1 expression, antagonist transcription ([2]; +1 nM R1881, 10 μM): 7.22
NOV expression, antagonist transcription ([2]; +1 nM R1881, 10 μM): 0.86
ORM1 expression, antagonist transcription ([2]; +1 nM R1881, 10 μM): 156.90
PLD1 expression, antagonist transcription ([2]; +1 nM R1881, 10 μM): 0.11
PSA expression, antagonist transcription ([2]; +1 nM R1881, 10 μM): 12.90
SLUG expression, antagonist transcription ([2]; +1 nM R1881, 10 μM): 11.15
STEAP4 expression, antagonist transcription ([2]; +1 nM R1881, 10 μM): 32.98
TMPRSS2 expression, antagonist transcription ([2]; +1 nM R1881, 10 μM): 11.45
AMIGO2 expression, antagonist transcription ([2]; +1 nM R1881, 30 μM): 0.76
BDNF expression, antagonist transcription ([2]; +1 nM R1881, 30 μM): 0.88
CAM2KN1 expression, antagonist transcription ([2]; +1 nM R1881, 30 μM): 0.42
FASN expression, antagonist transcription ([2]; +1 nM R1881, 30 μM): 0.64
FKBP5 expression, antagonist transcription ([2]; +1 nM R1881, 30 μM): 1.08
HPGD expression, antagonist transcription ([2]; +1 nM R1881, 30 μM): 2.78
NCAPD3 expression, antagonist transcription ([2]; +1 nM R1881, 30 μM): 0.96
NKX3.1 expression, antagonist transcription ([2]; +1 nM R1881, 30 μM): 5.49
NOV expression, antagonist transcription ([2]; +1 nM R1881, 30 μM): 0.82
ORM1 expression, antagonist transcription ([2]; +1 nM R1881, 30 μM): 16.42
PLD1 expression, antagonist transcription ([2]; +1 nM R1881, 30 μM): 0.32
PSA expression, antagonist transcription ([2]; +1 nM R1881, 30 μM): 7.20
SLUG expression, antagonist transcription ([2]; +1 nM R1881, 30 μM): 5.49
STEAP4 expression, antagonist transcription ([2]; +1 nM R1881, 30 μM): 6.86
TMPRSS2 expression, antagonist transcription ([2]; +1 nM R1881, 30 μM): 5.94
AMIGO2 gene expression [2, 3]: 0.72
BDNF gene expression [2, 3]: 0.85
CAM2KN1 gene expression [2, 3]: 0.80
FASN gene expression [2, 3]: 0.75
FKBP5 gene expression [2, 3]: 0.99
HPGD gene expression [2, 3]: 1.18
NCAPD3 gene expression [2, 3]: 0.91
NKX3.1 gene expression [2, 3]: 1.13
NOV gene expression [2, 3]: 1.04
ORM1 gene expression [2, 3]: 0.84
PLD1 gene expression [2, 3]: 1.04
PSA gene expression [2, 3]: 1.43
SLUG gene expression [2, 3]: 1.03
